Assay results taken from patent US20260078122A1, “INDAZOLE COMPOUNDS AS PKMYT1 KINASE INHIBITORS” (Hoffmann-La Roche Inc., priority 2023, published 2026).

target: T1, recombinant human Myt1 (full length PKMYT1) (Homo sapiens, UniProt Q99640); assay: ADP-Glo assay (Myt1 kinase activity)
T1 sequence (Q99640 1-499): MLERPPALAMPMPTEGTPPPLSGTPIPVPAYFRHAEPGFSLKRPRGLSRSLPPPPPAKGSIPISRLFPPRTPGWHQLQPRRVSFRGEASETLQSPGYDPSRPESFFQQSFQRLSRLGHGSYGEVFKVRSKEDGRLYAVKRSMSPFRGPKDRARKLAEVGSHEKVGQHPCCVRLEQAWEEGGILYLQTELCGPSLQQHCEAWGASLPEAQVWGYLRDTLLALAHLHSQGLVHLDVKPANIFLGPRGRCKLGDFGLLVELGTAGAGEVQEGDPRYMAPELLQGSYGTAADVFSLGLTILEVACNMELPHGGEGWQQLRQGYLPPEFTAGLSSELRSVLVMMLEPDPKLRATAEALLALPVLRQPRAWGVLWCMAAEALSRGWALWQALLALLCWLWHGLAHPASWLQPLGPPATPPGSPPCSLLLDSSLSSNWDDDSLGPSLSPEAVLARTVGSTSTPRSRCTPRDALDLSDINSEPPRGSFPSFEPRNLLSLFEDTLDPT

| SMILES | IC50 |
| --- | --- |
| Cc1c(OC2CCC2)cnc2c(-c3ccc(F)c4[nH]ncc34)c(N)c(=O)[nH]c12 [Example 139, 3-Amino-7-(cyclobutoxy)-4-(7-fluoro-1H-indazol-4-yl)-8-methyl-1H-1,5-naphthyridin-2-one] | 13.2 nM |
| Cc1ncc(OC2CC2)c2c(-c3ccc(F)c4[nH]ncc34)c(N)c(=O)[nH]c12 [Example 187, 3-Amino-5-(cyclopropoxy)-4-(7-fluoro-1H-indazol-4-yl)-8-methy-1H-1,7-naphthyridin-2-one] | 10.8 nM |
| Cc1cc2[nH]c(=O)c(N)c(-c3ccc(F)c4[nH]ncc34)c2nc1O[C@H]1C[C@H](F)C1 [Example 080, trans-3-Amino-6-(3-fluorocyclobutoxy)-4-(7-fluoro-1H-indazol-4-yl)-7-methyl-1H-1,5-naphthyridin-2-one] | 21.1 nM |
| Nc1c(-c2ccc(F)c3[nH]ncc23)c2ncc(-c3ccc(F)cn3)cc2[nH]c1=O [Example 14] | 44.6 nM |
| COc1cc(C)cc2[nH]c(=O)c(N)c(-c3ccc(F)c4[nH]ncc34)c12 [Example 102, 3-Amino-4-(7-fluoro-1H-indazol-4-yl)-5-methoxy-7-methyl-1H-quinolin-2-one] | 16 nM |
| CCCOc1cnc(C)c2[nH]c(=O)c(N)c(-c3ccc(F)c4[nH]ncc34)c12 [Example 190, 3-Amino-4-(7-fluoro-1H-indazol-4-yl)-8-methyl-5-propoxy-1H-1,7-naphthyridin-2-one] | 15.3 nM |
| Cc1cc2[nH]c(=O)c(N)c(-c3ccc(F)c4[nH]ncc34)c2nc1OCC12CC(C1)C2 [Example 063, 3-Amino-6-(1-bicyclo[1.1.1]pentanylmethoxy)-4-(7-fluoro-1H-indazol-4-yl)-7-methyl-1H-1,5-naphthyridin-2-one] | 9.7 nM |
| Cc1cc2[nH]c(=O)c(N)c(-c3ccc(F)c4[nH]ncc34)c2nc1-c1ncco1 [Example 154, 3-Amino-4-(7-fluoro-1H-indazol-4-yl)-7-methyl-6-oxazol-2-yl-1H-1,5-naphthyridin-2-one] | < 10 nM |
| Cc1cc2[nH]c(=O)c(N)c(-c3ccc(F)c4[nH]ncc34)c2cc1C [Example 48, 3-Amino-4-(7-fluoro-1H-indazol-4-yl)-6,7-dimethyl-1H-quinolin-2-one] | 27.1 nM |
| Nc1c(-c2ccc(F)c3[nH]ncc23)c2ncc(N3CCOCC3)cc2[nH]c1=O [Example 19, 3-Amino-4-(7-fluoro-1H-indazol-4-yl)-7-morpholino-1H-1,5-naphthyridin-2-one] | 30.3 nM |
| Cc1cc2[nH]c(=O)c(N)c(-c3ccc(F)c4[nH]ncc34)c2nc1N1CC2(COC2)C1 [Example 26, 3-Amino-4-(7-fluoro-1H-indazol-4-yl)-7-methyl-6-(2-oxa-6-azaspiro[3.3]heptan-6-yl)-1H-1,5-naphthyridin-2-one] | < 10 nM |
| Cc1cc2[nH]c(=O)c(N)c(-c3ccc(F)c4[nH]ncc34)c2nc1OC1CC(C#N)C1 (stereo not shown) [Example 079, 3-[[7-Amino-8-(7-fluoro-1H-indazol-4-yl)-3-methyl-6-oxo-5H-1,5-naphthyridin-2-yl]oxy]cyclobutanecarbonitrile] | 17.8 nM |
| Nc1c(-c2ccc(F)c3[nH]ncc23)c2ncc(-c3ccns3)cc2[nH]c1=O [Example 10, 3-Amino-4-(7-fluoro-1H-indazol-4-yl)-7-isothiazol-5-yl-1H-1,5-naphthyridin-2-one] | 42.9 nM |
| Cc1cc2[nH]c(=O)c(N)c(-c3ccc(Cl)c4[nH]ncc34)c2nc1C [Example 159, 3-Amino-4-(7-chloro-1H-indazol-4-yl)-6,7-dimethyl-1H-1,5-naphthyridin-2-one] | < 10 nM |
| Cc1cc2[nH]c(=O)c(N)c(-c3ccc(F)c4[nH]ncc34)c2nc1OCCC(F)F [Example 081, 3-Amino-6-(3,3-difluoropropoxy)-4-(7-fluoro-1H-indazol-4-yl)-7-methyl-1H-1,5-naphthyridin-2-one] | 14.6 nM |
| Cc1ncc(OCc2ccccc2)c2c(-c3ccc(F)c4[nH]ncc34)c(N)c(=O)[nH]c12 [Example 181, 3-Amino-5-benzyloxy-4-(7-fluoro-1H-indazol-4-yl)-8-methyl-1H-1,7-naphthyridin-2-one] | 20 nM |
| Cc1cc2[nH]c(=O)c(N)c(-c3ccc(F)c4[nH]ncc34)c2nc1-c1ccccn1 [Example 155, 3-Amino-4-(7-fluoro-1H-indazol-4-yl)-7-methyl-6-(2-pyridyl)-1H-1,5-naphthyridin-2-one] | 14.7 nM |
| Nc1c(-c2ccc(F)c3[nH]ncc23)c2ncc(F)cc2[nH]c1=O [Example 4] | 48.1 nM |

Results, then the compound that gave them:

| IC50 | SMILES |
| --- | --- |
| 12.3 nM | Cc1c(C2CC2(C)C)cnc2c(-c3ccc(F)c4[nH]ncc34)c(N)c(=O)[nH]c12 (stereo not shown) [Example 130, 3-Amino-7-(2,2-dimethylcyclopropyl)-4-(7-fluoro-1H-indazol-4-yl)-8-methyl-1H-1,5-naphthyridin-2-one] |
| 12.8 nM | Cc1c(C2(C)CC2)cnc2c(-c3ccc(F)c4[nH]ncc34)c(N)c(=O)[nH]c12 [Example 129, 3-Amino-4-(7-fluoro-1H-indazol-4-yl)-8-methyl-7-(1-methylcyclopropyl)-1H-1,5-naphthyridin-2-one] |
| 33.3 nM | COCc1cnc(C)c2[nH]c(=O)c(N)c(-c3ccc(F)c4[nH]ncc34)c12 [Example 193, 3-Amino-4-(7-fluoro-1H-indazol-4-yl)-5-(methoxymethyl)-8-methyl-1H-1,7-naphthyridin-2-one] |
| < 10 nM | C=Cc1nc2c(-c3ccc(F)c4[nH]ncc34)c(N)c(=O)[nH]c2c(Cl)c1C [Example 113, 3-Amino-8-chloro-4-(7-fluoro-1H-indazol-4-yl)-7-methyl-6-vinyl-1H-1,5-naphthyridin-2-one] |
| < 10 nM | Cc1nc2c(-c3ccc(F)c4[nH]ncc34)c(N)c(=O)[nH]c2cc1Cl [Example 52, 3-Amino-7-chloro-4-(7-fluoro-1H-indazol-4-yl)-6-methyl-1H-1,5-naphthyridin-2-one] |
| 14.3 nM | Cc1ncc(Cl)c2c(-c3ccc(F)c4[nH]ncc34)c(N)c(=O)[nH]c12 [Example 176, 3-Amino-5-chloro-4-(7-fluoro-1H-indazol-4-yl)-8-methyl-1H-1,7-naphthyridin-2-one] |
| 11.9 nM | Cc1cc2[nH]c(=O)c(N)c(-c3ccc(F)c4[nH]ncc34)c2nc1C1COC1 [Example 093, 3-Amino-4-(7-fluoro-1H-indazol-4-yl)-7-methyl-6-(oxetan-3-yl)-1H-1,5-naphthyridin-2-one] |
| < 10 nM | Cc1c(C2CC2)ncc2c(-c3ccc(F)c4[nH]ncc34)c(N)c(=O)[nH]c12 [Example 165, 3-amino-7-cyclopropyl-4-(7-fluoro-1H-indazol-4-yl)-8-methyl-1H-1,6-naphthyridin-2-one] |
| 18.5 nM | Cc1cnc2c(-c3ccc(F)c4[nH]ncc34)c(N)c(=O)[nH]c2c1C(F)F [Example 145, 3-Amino-8-(difluoromethyl)-4-(7-fluoro-1H-indazol-4-yl)-7-methyl-1H-1,5-naphthyridin-2-one] |
| < 10 nM | C=C(C)c1cnc2c(-c3ccc(F)c4[nH]ncc34)c(N)c(=O)[nH]c2c1C [Example 125, 3-Amino-4-(7-fluoro-1H-indazol-4-yl)-7-isopropenyl-8-methyl-1H-1,5-naphthyridin-2-one] |
| < 10 nM | Cc1c(C2CC2F)cnc2c(-c3ccc(F)c4[nH]ncc34)c(N)c(=O)[nH]c12 (stereo not shown) [Example 132, 3-Amino-7-(2-fluorocyclopropyl)-4-(7-fluoro-1H-indazol-4-yl)-8-methyl-1H-1,5-naphthyridin-2-one] |
| 13.6 nM | Cc1c(C2CC2)nc2c(-c3ccc(F)c4[nH]ncc34)c(N)c(=O)[nH]c2c1C1CC1 [Example 114, 3-Amino-6,8-dicyclopropyl-4-(7-fluoro-1H-indazol-4-yl)-7-methyl-1H-1,5-naphthyridin-2-one] |
| 12.3 nM | COC(=O)c1nc2c(-c3ccc(F)c4[nH]ncc34)c(N)c(=O)[nH]c2cc1C [Example 087, Methyl 7-amino-8-(7-fluoro-1H-indazol-4-yl)-3-methyl-6-oxo-5H-1,5-naphthyridine-2-carboxylate] |
| 13 nM | Cc1c(C2CCC2)cnc2c(-c3ccc(F)c4[nH]ncc34)c(N)c(=O)[nH]c12 [Example 119, 3-Amino-7-cyclobutyl-4-(7-fluoro-1H-indazol-4-yl)-8-methyl-1H-1,5-naphthyridin-2-one] |
| < 10 nM | Nc1c(-c2ccc(F)c3[nH]ncc23)c2nc(Cl)c(C3CC3)cc2[nH]c1=O [Example 095, 3-Amino-6-chloro-7-cyclopropyl-4-(7-fluoro-1H-indazol-4-yl)-1H-1,5-naphthyridin-2-one] |
| 11.7 nM | Cc1nc2c(-c3ccc(F)c4[nH]ncc34)c(N)c(=O)[nH]c2c(Cl)c1C [Example 57, 3-Amino-8-chloro-4-(7-fluoro-1H-indazol-4-yl)-6,7-dimethyl-1H-1,5-naphthyridin-2-one] |
| 14.2 nM | Cc1c(OC(C)C)cnc2c(-c3ccc(F)c4[nH]ncc34)c(N)c(=O)[nH]c12 [Example 138, 3-Amino-4-(7-fluoro-1H-indazol-4-yl)-7-isopropoxy-8-methyl-1H-1,5-naphthyridin-2-one] |
| 10.7 nM | Cc1cnc2c(-c3ccc(F)c4[nH]ncc34)c(N)c(=O)[nH]c2c1Cl [Example 53, 3-Amino-8-chloro-4-(7-fluoro-1H-indazol-4-yl)-7-methyl-1H-1,5-naphthyridin-2-one] |
| < 10 nM | COC(C)(C)C#Cc1cc(C)c2[nH]c(=O)c(N)c(-c3ccc(F)c4[nH]ncc34)c2n1 [Example 149, 3-Amino-4-(7-fluoro-1H-indazol-4-yl)-6-(3-methoxy-3-methyl-but-1-ynyl)-8-methyl-1H-1,5-naphthyridin-2-one] |
